Assay results as given in ChEMBL document CHEMBL3885881, “DrugMatrix”.

Organism: Rattus norvegicus
Experiment: DrugMatrix - Regimen: Daily Repeat
Type: toxicity, organism-based, Sprague-Dawley
Design: regimen Daily Repeat, gender Male, age 6-8 weeks
Conditions: in vivo, po, 1500 mg/kg, route oral GAVAGE, dose level High, vehicle .5 % CMC; for ABSOLUTE BASOPHIL / ABSOLUTE EOSINOPHIL / ABSOLUTE LYMPHOCYTE / ABSOLUTE MONOCYTE / ABSOLUTE SEGMENTED NEUTROPHIL / BASOPHIL / EOSINOPHIL / HEMATOCRIT / HEMOGLOBIN / LEUKOCYTE COUNT / LYMPHOCYTE / MEAN CORPUSCULAR HEMOGLOBIN / MEAN CORPUSCULAR HEMOGLOBIN CONCENTRATION / MEAN CORPUSCULAR VOLUME / MONOCYTE / NEUTROPHIL / NUCLEATED RED BLOOD CELLS / PLATELET COUNT: tissue Blood; for ALANINE AMINOTRANSFERASE / ALBUMIN / ALKALINE PHOSPHATASE / ASPARTATE AMINOTRANSFERASE / BLOOD UREA NITROGEN / CARBON DIOXIDE / CHLORIDE / CHOLESTEROL / CREATINE PHOSPHOKINASE / CREATININE / GLUCOSE / LACTATE DEHYDROGENASE / LIPASE / PHOSPHORUS / POTASSIUM / SODIUM / TOTAL BILIRUBIN / TOTAL PROTEIN / URIC ACID: tissue Plasma

In the case of `CC(C)(C)NCC(O)COc1cccc2c1CC(O)C(O)C2` (centres undefined) [NADOLOL], the “ABSOLUTE BASOPHIL” value (72 h, time 3 day) is reported as 0 CELLS/uL, the “ABSOLUTE EOSINOPHIL” value (72 h, time 3 day) is reported as 179 CELLS/uL and the “ABSOLUTE LYMPHOCYTE” value (72 h, time 3 day) is reported as 10744.33 CELLS/uL. For the same molecule, the “ABSOLUTE MONOCYTE” value (72 h, time 3 day) was 0 CELLS/uL, the “ABSOLUTE SEGMENTED NEUTROPHIL” value (72 h, time 3 day) was 1443.33 CELLS/uL and the BASOPHIL (72 h, time 3 day) was 0%. The EOSINOPHIL (72 h, time 3 day) was 1.33%, the HEMATOCRIT (72 h, time 3 day) was 32.37% and the HEMOGLOBIN (72 h, time 3 day) was 12.3 G/DL. For the same molecule, the “LEUKOCYTE COUNT” value (72 h, time 3 day) was 12.37 x10E3/uL, the LYMPHOCYTE (72 h, time 3 day) was 87.67% and the “MEAN CORPUSCULAR HEMOGLOBIN” value (72 h, time 3 day) was 24.6 pg. For the same molecule, the “MEAN CORPUSCULAR HEMOGLOBIN CONCENTRATION” value (72 h, time 3 day) was 38 G/DL, the “MEAN CORPUSCULAR VOLUME” value (72 h, time 3 day) was 64.77 fL and the MONOCYTE (72 h, time 3 day) was 0%. The NEUTROPHIL (72 h, time 3 day) was 11%, the “NUCLEATED RED BLOOD CELLS” value (72 h, time 3 day) was 0 /100WBC and the “PLATELET COUNT” value (72 h, time 3 day) was 1241.33 x10E3/uL. For the same molecule, the “ALANINE AMINOTRANSFERASE” value (72 h, time 3 day) was 51.33 u/L, the ALBUMIN (72 h, time 3 day) was 3.9 G/DL and the “ALKALINE PHOSPHATASE” value (72 h, time 3 day) was 378.33 u/L. The “ASPARTATE AMINOTRANSFERASE” value (72 h, time 3 day) was 79.33 u/L, the “BLOOD UREA NITROGEN” value (72 h, time 3 day) was 16 mg/dL and the “CARBON DIOXIDE” value (72 h, time 3 day) was 24.67 mmol/L. The CHLORIDE (72 h, time 3 day) was 109.33 MEQ/L, the CHOLESTEROL (72 h, time 3 day) was 85 mg/dL and the “CREATINE PHOSPHOKINASE” value (72 h, time 3 day) was 126 u/L. For the same molecule, the CREATININE (72 h, time 3 day) was 0.15 mg/dL, the GLUCOSE (72 h, time 3 day) was 170 mg/dL and the “LACTATE DEHYDROGENASE” value (72 h, time 3 day) was 86.33 u/L. It also gave an LIPASE (72 h, time 3 day) of 8 u/L, a PHOSPHORUS (72 h, time 3 day) of 14.57 mg/dL and a POTASSIUM (72 h, time 3 day) of 7.08 MEQ/L. The SODIUM (72 h, time 3 day) was 148.37 MEQ/L, the “TOTAL BILIRUBIN” value (72 h, time 3 day) was 0.17 mg/dL and the “TOTAL PROTEIN” value (72 h, time 3 day) was 5.63 G/DL. The “URIC ACID” value (72 h, time 3 day) was 2.2 mg/dL, the “ABSOLUTE BASOPHIL” value (120 h, time 5 day) was 0 CELLS/uL and the “ABSOLUTE EOSINOPHIL” value (120 h, time 5 day) was 191.67 CELLS/uL. For the same molecule, the “ABSOLUTE LYMPHOCYTE” value (120 h, time 5 day) was 13307.33 CELLS/uL, the “ABSOLUTE MONOCYTE” value (120 h, time 5 day) was 0 CELLS/uL and the “ABSOLUTE SEGMENTED NEUTROPHIL” value (120 h, time 5 day) was 867.67 CELLS/uL. It also gave a BASOPHIL (120 h, time 5 day) of 0%, an EOSINOPHIL (120 h, time 5 day) of 1.33% and an HEMATOCRIT (120 h, time 5 day) of 33.3%. The HEMOGLOBIN (120 h, time 5 day) was 12.53 G/DL, the “LEUKOCYTE COUNT” value (120 h, time 5 day) was 14.37 x10E3/uL and the LYMPHOCYTE (120 h, time 5 day) was 92.67%. For the same molecule, the “MEAN CORPUSCULAR HEMOGLOBIN” value (120 h, time 5 day) was 23.37 pg, the “MEAN CORPUSCULAR HEMOGLOBIN CONCENTRATION” value (120 h, time 5 day) was 37.67 G/DL and the “MEAN CORPUSCULAR VOLUME” value (120 h, time 5 day) was 62.2 fL. The MONOCYTE (120 h, time 5 day) was 0%, the NEUTROPHIL (120 h, time 5 day) was 6% and the “NUCLEATED RED BLOOD CELLS” value (120 h, time 5 day) was 0 /100WBC. The “PLATELET COUNT” value (120 h, time 5 day) was 1258.33 x10E3/uL, the “ALANINE AMINOTRANSFERASE” value (120 h, time 5 day) was 44.67 u/L and the ALBUMIN (120 h, time 5 day) was 3.9 G/DL. For the same molecule, the “ALKALINE PHOSPHATASE” value (120 h, time 5 day) was 343 u/L, the “ASPARTATE AMINOTRANSFERASE” value (120 h, time 5 day) was 80 u/L and the “BLOOD UREA NITROGEN” value (120 h, time 5 day) was 16.33 mg/dL. The “CARBON DIOXIDE” value (120 h, time 5 day) was 25.33 mmol/L, the CHLORIDE (120 h, time 5 day) was 103.67 MEQ/L and the CHOLESTEROL (120 h, time 5 day) was 74 mg/dL. The “CREATINE PHOSPHOKINASE” value (120 h, time 5 day) was 262 u/L, the CREATININE (120 h, time 5 day) was 0.21 mg/dL and the GLUCOSE (120 h, time 5 day) was 152.33 mg/dL. For the same molecule, the “LACTATE DEHYDROGENASE” value (120 h, time 5 day) was 268.33 u/L, the LIPASE (120 h, time 5 day) was 8 u/L and the PHOSPHORUS (120 h, time 5 day) was 13 mg/dL. For the same molecule, the POTASSIUM (120 h, time 5 day) was 6.63 MEQ/L, the SODIUM (120 h, time 5 day) was 146.2 MEQ/L and the “TOTAL BILIRUBIN” value (120 h, time 5 day) was 0.13 mg/dL. For the same molecule, the “TOTAL PROTEIN” value (120 h, time 5 day) was 5.7 G/DL and the “URIC ACID” value (120 h, time 5 day) was 1.47 mg/dL.
